Assay results reported in US12448388B2, “PRMT5 inhibitors and uses thereof” (Gilead Sciences, Inc., priority 2023, dated 2025).
Like-named read-outs stand apart in the source and are kept apart here.

Test system: HCT116 MTAP-deleted cell lines
Test: Cell viability assay (CellTiter-Glo, 7 days), HCT116 MTAP-deleted
Assay type: cell-based
Settings: Homo sapiens, HCT-116, HCT116 MTAP-deleted, class symbols, read-out: CC50
Method in brief: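 Dose-response, PRMT5 inhibitors from DMSO serial dilution, pre-spotted; cells seeded onto compound plates. 7 d, 37 °C/5% CO2/90% RH. Readout: CTG luminescence → CC50.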

SMILES	CC50 (cell viability) [nM]	CC50 (cell viability assay) [nM]
CN(C(=O)c1cc2c(cc1F)nc(N)c1cncn12)[C@@H]1COc2cc(-c3ccc(C(F)(F)F)nc3)ccc21 [Ff-229, (S)-4-amino-7-fluoro-N-methyl-N-(6-(6-(trifluoromethyl)pyridin-3-yl)-2,3-dihydrobenzofuran-3-yl)imidazo[1,5-a]quinoxaline-8-carboxamide]	< 100	
CN(C(=O)c1cc2c(cn1)nc(N)c1cncn12)[C@@H](c1ccc(C(F)(F)F)cc1Cl)C(F)F [Ff-571, (S)-4-amino-N-(1-(2-chloro-4-(trifluoromethyl)phenyl)-2,2-difluoroethyl)-N-methylimidazo[1,5-a]pyrido[3,4-e]pyrazine-8-carboxamide]		100 to 1000
Cc1ncn2c1c(N)nc1cnc(C(=O)N3C[C@H](F)CC4Oc5cc(C(F)(F)F)ccc5C43)cc12 (mixture of isomers) [Ff-650, Rac-(4-amino-3-methylimidazo[1,5-a]pyrido[3,4-e]pyrazin-8-yl)((3R,4aS,9bS)-3-fluoro-7-(trifluoromethyl)-3,4,4a,9b-tetrahydrobenzofuro[3,2-b]pyridin-1(2H)-yl)methanone]		< 100
C[C@H]1C[C@@H](N(C)C(=O)c2cc3c(cc2F)nc(N)c2cncn23)c2ccc(C(F)(F)F)cc21 [Ff-654, 4-amino-7-fluoro-N-methyl-N-((1R,3S)-3-methyl-5-(trifluoromethyl)-2,3-dihydro-1H-inden-1-yl)imidazo[1,5-a]quinoxaline-8-carboxamide]		< 100
Nc1nc2cc(F)c(C(=O)N3CCC[C@@H]4OCc5cc(-c6cnn(C(F)F)c6)ccc5[C@@H]43)cc2n2cncc12 (racemic) [Ff-296, Rac-(4-amino-7-fluoroimidazo[1,5-a]quinoxalin-8-yl)((4aS,10bS)-8-(1-(difluoromethyl)-1H-pyrazol-4-yl)-2,3,4,4a,6,10b-hexahydro-1H-isochromeno[4,3-b]pyridin-1-yl)methanone]	< 100	
CN(C(=O)c1cc2c(cc1F)nc(N)c1cncn12)[C@@H]1COc2cc(OC(F)F)cc(F)c21 [Ff-585]		< 100
COc1cc(C(F)(F)F)ccc1[C@H](C)N(C)C(=O)c1cc2c(cc1F)nc(N)c1cncn12 [Ff-536, (S)-4-amino-7-fluoro-N-(1-(2-methoxy-4-(trifluoromethyl)phenyl)ethyl)-N-methylimidazo[1,5-a]quinoxaline-8-carboxamide]		100 to 1000
CC(C)N(Cc1ccc(-c2cnn(-c3ccccc3)c2)cc1F)C(=O)c1cc2c(cc1F)nc(N)c1cncn12 [Ff-593, 4-amino-7-fluoro-N-(2-fluoro-4-(1-phenyl-1H-pyrazol-4-yl)benzyl)-N-isopropylimidazo[1,5-a]quinoxaline-8-carboxamide]		< 100
Nc1nc2cnc(C(=O)N3CC[C@H]4C[C@@H]3c3ccc(OC(F)(F)F)cc3O4)cc2n2cncc12 (racemic) [Ff-373, Rac-(4-aminoimidazo[1,5-a]pyrido[3,4-e]pyrazin-8-yl)((2S,6R)-9-(trifluoromethoxy)-3,4-dihydro-2H-2,6-methanobenzo[b][1,5]oxazocin-5(6H)-yl)methanone]		< 100
Cn1cc(N(Cc2ncc(C(F)(F)F)cc2F)C(=O)c2cc3c(cc2F)nc(N)c2cncn23)cn1 [Ff-290, 4-amino-7-fluoro-N-((3-fluoro-5-(trifluoromethyl)pyridin-2-yl)methyl)-N-(1-methyl-1H-pyrazol-4-yl)imidazo[1,5-a]quinoxaline-8-carboxamide]	< 100	
Nc1nc2cc(F)c(C(=O)N3CCC(F)(F)CC3c3ccc(C(F)(F)F)cn3)cc2n2cncc12 (stereo not drawn) [Ff-223, (4-amino-7-fluoroimidazo[1,5-a]quinoxalin-8-yl)(4,4-difluoro-2-(5-(trifluoromethyl)pyridin-2-yl)piperidin-1-yl)methanone]	100 to 1000	
CN(C(=O)c1ccc2nc(N)c3cncn3c2c1)[C@@H]1COc2cc(C#CC3(C(F)F)CC3)ccc21 [Ff-521, (S)-4-amino-N-(6-((1-(difluoromethyl)cyclopropyl)ethynyl)-2,3-dihydrobenzofuran-3-yl)-N-methylimidazo[1,5-a]quinoxaline-8-carboxamide]		100 to 1000
CN(Cc1nc(-c2cnn(C(F)F)c2)cs1)C(=O)c1cc2c(cc1F)nc(N)c1cncn12 [Ff-48, 4-amino-N-((4-(1-(difluoromethyl)-1H-pyrazol-4-yl)thiazol-2-yl)methyl)-7-fluoro-N-methylimidazo[1,5-a]quinoxaline-8-carboxamide]	100 to 1000	
Nc1nc2cc(F)c(C(=O)N3CCC[C@H]4Oc5cc(OC(F)(F)F)ccc5[C@H]43)cc2n2cncc12 (single isomer, unassigned) [Ff-394]		100 to 1000
Cc1ncc2c(N)nc3ccc(C(=O)N4C[C@@H](C)O[C@@H]5Cc6cc(OC(F)(F)F)ccc6[C@@H]54)cc3n12 (single isomer, unassigned) [Ff-189]	100 to 1000	
Nc1nc2cnc(C(=O)N3CCO[C@@H]4Cc5cc(OC(F)(F)F)ccc5[C@@H]43)cc2n2cncc12 [Ff-182, (4-aminoimidazo[1,5-a]pyrido[3,4-e]pyrazin-8-yl)((4aS,9aR)-7-(trifluoromethoxy)-2,3,9,9a-tetrahydroindeno[2,1-b][1,4]oxazin-4(4aH)-yl)methanone]	< 100	
C[C@@H]1CN(C(=O)c2ccc3nc(N)c4cncn4c3c2)[C@H]2c3ccc(C(F)(F)F)cc3C[C@H]2O1 [Ff-630, (4-aminoimidazo[1,5-a]quinoxalin-8-yl)((2R,4aS,9aR)-2-methyl-7-(trifluoromethyl)-2,3,9,9a-tetrahydroindeno[2,1-b][1,4]oxazin-4(4aH)-yl)methanone]		< 100
CC(C)N(Cc1ccc(-c2cccc(OC(F)F)c2)cc1F)C(=O)c1cc2c(cc1F)nc(N)c1cncn12 [Ff-592, 4-amino-N-((3′-(difluoromethoxy)-3-fluoro-[1,1′-biphenyl]-4-yl)methyl)-7-fluoro-N-isopropylimidazo[1,5-a]quinoxaline-8-carboxamide]		< 100
CN(C(=O)c1ccc2nc(N)c3cncn3c2c1)[C@@H]1COc2cc(C#CC3(C)COC3)ccc21 [Ff-518, (S)-4-amino-N-methyl-N-(6-((3-methyloxetan-3-yl)ethynyl)-2,3-dihydrobenzofuran-3-yl)imidazo[1,5-a]quinoxaline-8-carboxamide]		< 100
COc1cc(C(F)(F)F)ccc1C1CCCCN1C(=O)c1cc2c(cc1F)nc(N)c1cncn12 (stereo not drawn) [Ff-143, (4-amino-7-fluoroimidazo[1,5-a]quinoxalin-8-yl)(2-(2-methoxy-4-(trifluoromethyl)phenyl)piperidin-1-yl)methanone]	100 to 1000	
Nc1nc2cc(F)c(C(=O)N3CCO[C@@H]4Cc5cc(C(F)(F)F)ccc5[C@@H]43)cc2n2cncc12 (racemic) [Ff-34, Racemic (4-amino-7-fluoroimidazo[1,5-a]quinoxalin-8-yl)((4aS,9aR)-7-(trifluoromethyl)-2,3,9,9a-tetrahydroindeno[2,1-b][1,4]oxazin-4(4aH)-yl)methanone]	< 100	
CN(C(=O)c1ccc2nc(N)c3cncn3c2c1)[C@@H]1COc2cc(C#CC3(O)COC3)ccc21 [Ff-527, (S)-4-amino-N-(6-((3-hydroxyoxetan-3-yl)ethynyl)-2,3-dihydrobenzofuran-3-yl)-N-methylimidazo[1,5-a]quinoxaline-8-carboxamide]		100 to 1000
COC[C@H](c1ccc(C(F)(F)F)cc1)N(C)C(=O)c1cc2c(cc1F)nc(N)c1cncn12 [Ff-431, 4-amino-7-fluoro-N-[(1S)-2-methoxy-1-[4-(trifluoromethyl)phenyl]ethyl]-N-methyl-imidazo[1,5-a]quinoxaline-8-carboxamide]		100 to 1000
Cc1ncn2c1c(N)nc1cnc(C(=O)N3CCC[C@@H]4Oc5c(ccc(C(F)(F)F)c5F)[C@@H]43)cc12 [Ff-119, (4-amino-3-methylimidazo[1,5-a]pyrido[3,4-e]pyrazin-8-yl)((4aS,9bS)-6-fluoro-7-(trifluoromethyl)-3,4,4a,9b-tetrahydrobenzofuro[3,2-b]pyridin-1(2H)-yl)methanone]	< 100	
C[C@@H]1CC[C@@H]2Oc3cc(C(F)(F)F)ccc3[C@@H]2N1C(=O)c1cc2c(cn1)nc(N)c1cncn12 (racemic) [Ff-106, Rac-(4-aminoimidazo[1,5-a]pyrido[3,4-e]pyrazin-8-yl)((2R,4aS,9bS)-2-methyl-7-(trifluoromethyl)-3,4,4a,9b-tetrahydrobenzofuro[3,2-b]pyridin-1(2H)-yl)methanone]	< 100	
Nc1nc2ccc(C(=O)N3CCOC[C@@H]3c3ccc(C(F)(F)F)cc3)cc2n2cnc(F)c12 [Ff-103, (S)-(4-amino-3-fluoroimidazo[1,5-a]quinoxalin-8-yl)(3-(4-(trifluoromethyl)phenyl)morpholino)methanone]	100 to 1000	
CN(C(=O)c1cc2c(cc1F)nc(N)c1cncn12)[C@@H]1CCc2cc(C(F)F)ccc21 [Ff-166, (R)-4-amino-N-(5-(difluoromethyl)-2,3-dihydro-1H-inden-1-yl)-7-fluoro-N-methylimidazo[1,5-a]quinoxaline-8-carboxamide]	< 100	
Cc1ncc2c(N)nc3cc(F)c(C(=O)N4CCC[C@@H]5Oc6c(ccc(C(F)(F)F)c6F)[C@@H]54)cc3n12 [Ff-651, (4-amino-7-fluoro-1-methylimidazo[1,5-a]quinoxalin-8-yl)((4aS,9bS)-6-fluoro-7-(trifluoromethyl)-3,4,4a,9b-tetrahydrobenzofuro[3,2-b]pyridin-1(2H)-yl)methanone]		< 100
CN(C(=O)c1cc2c(cc1F)nc(N)c1cncn12)[C@@H]1COc2cc(-c3ccc(C(F)(F)F)cc3)ccc21 [Ff-230, (S)-4-amino-7-fluoro-N-methyl-N-(6-(4-(trifluoromethyl)phenyl)-2,3-dihydrobenzofuran-3-yl)imidazo[1,5-a]quinoxaline-8-carboxamide]	100 to 1000	
CN(C(=O)c1cc2c(cc1F)nc(N)c1cncn12)[C@H](CC1CC1)c1ccc(C(F)(F)F)cn1 [Ff-541, (R)-4-amino-N-(2-cyclopropyl-1-(5-(trifluoromethyl)pyridin-2-yl)ethyl)-7-fluoro-N-methylimidazo[1,5-a]quinoxaline-8-carboxamide]		100 to 1000
